Source: a melting point compilation (Tetko et al.; mined from patent text by program, amines drawn as free bases though some values may be those of a salt)

melting point [°C]	SMILES
236	COC(=O)c1c(N)c2ccccc2[nH]c1=O
130 to 131	O=C(O)C(Cc1ccccc1)C(=O)N[C@H](CO)Cc1c[nH]c2ccccc12 (stereo partly specified)
> 300	Cc1ccc2nc(O)c(O)nc2c1
134 to 135	CCCc1c(OCc2cccn3c(=O)c(CC(=O)OCC)cnc23)ccc(C(C)=O)c1O
130 to 132	CCOC(=O)C(C#N)C1(C#N)C(=O)N(Cc2ccc(Br)cc2F)c2c(C)cccc21 (stereo unspecified)
101 to 103	CC(=O)C(=Cc1ccccc1)c1ccncc1
163 to 167	O=C(Nc1cc(Cl)c(N2CCCC2)c(Cl)c1)c1ccc(F)c(OCc2cccnc2)c1
> 250	COc1cccc(NC(=O)N[C@H]2C[C@@](N)(C(=O)O)[C@@H]3[C@@H](C(=O)O)[C@@H]32)c1 (relative stereo)
129 to 130	C=Cc1ccc2nnn(OS(C)(=O)=O)c2c1
115	CN(C)S(=O)(=O)c1ccc2c(c1)CC(Br)C2=O (stereo unspecified)
77 to 78	O=C(Cl)N1CC(Oc2ccc(Br)cc2)C1
> 240	Cc1c(S(=O)(=O)c2ccc(=O)[nH]n2)oc2cc(Cl)ccc12
246 to 247	CS(=O)(=O)Nc1ccc(O)cn1
< 20	CCOC(=O)C(C)(C)Oc1ccc(-c2ccc(CNC(=O)c3cc(Cl)ccc3OC)cc2)cc1
178 to 180	CN(c1cccc2cc(C3=NCC(C)(CN4CCNCC4)S3)[nH]c12)S(=O)(=O)c1cccs1 (stereo unspecified)
247 to 248	O=C(O)c1oc2ccc(Cl)cc2c1-c1ccccc1
255 to 257	N#Cc1ccc(Oc2cncc3sc(C(N)=O)cc23)cc1
220 to 222	O=C(NC(=O)c1c(Cl)cccc1Cl)Nc1ccc(Cl)cn1
155 to 156	COC(=O)Nc1c(C(=O)O)ccc(Cl)c1Cl
104 to 109	CC(=O)Nc1ccccc1S(=O)(=O)NCCN1[C@H](C)Cc2ccsc2[C@@H]1C (relative stereo)
163 to 165	C=C1C=C(Oc2cc(C(=O)O)ccc2OC)C1(F)F

melting point [°C]	SMILES
86 to 89	CN(C(=O)OC(C)(C)C)c1cc(OCc2ccccc2)ccc1N
91 to 92.5	C=CCNC(=O)N1CC(Oc2ccc(C(F)(F)F)cc2)C1
83 to 85	CC=CCC(O)C(=O)c1ccccc1 (stereo unspecified)
159	Cc1nc2sc(C)c(C)n2c(=O)c1CCN1CCC(C(=O)c2ccc(F)cc2)CC1
175 to 178	CC(=O)Oc1cc([N+](=O)[O-])ccc1CN1C(=O)c2ccccc2C1=O
148	CC(=O)c1ccc(N2C(=O)C(=O)N(c3cccc(Cl)c3)C2=O)cc1
146 to 148	COc1cc2c(cc1Br)CC=C2CCNC(C)=O
186	CS(=O)(=O)c1ncc2c(n1)N(c1ccccc1)C(=O)N(c1ccccc1Cl)C2
148	CSc1ccc(C=CC(=O)c2cccc(Br)c2)cc1
145 to 147	Clc1ccc2sc(=NCCc3c[nH]c4ccccc34)sc2c1
179 to 180	COC(=O)c1ccc(Cn2c(=O)c(C)c3sc(C(=O)NCc4ccc(F)cc4)cn3c2=O)cc1C
231 to 233	CCNC(=O)C1CCN(c2cc(-c3ccc(Cl)cc3)nc3ccccc23)CC1
30 to 32.5	C=CCOc1cccc(C(=O)CCC(=O)OC)c1
120 to 122	C[C@@H](O)c1nccc(N2CCc3ccc(S(=O)(=O)N(C)C)cc3C2)n1
140	O=C(O)CNC(=O)COc1c(F)cc(CSCCNS(=O)(=O)c2ccc(Cl)cc2)cc1F
> 300	Nc1scc2c(C(=O)O)nn(-c3ccc(Br)cc3)c(=O)c12
133 to 134	O=C(CCCCl)CN1C(=O)c2ccccc2C1=O
149 to 150	CCOC(=O)C(=O)Nc1cccc(C#N)c1
117 to 118	CCNS(=O)(=O)c1cncc([N+](=O)[O-])c1
125	NS(=O)(=O)c1cc(C(=O)CBr)ccc1F

Second part, the compound before the results:

SMILES	melting point [°C]
Cn1cnnc1C(O)(c1ccc(Cl)cc1)c1cc2c3c(c1)c(-c1cccc(Cl)c1)cc(=O)n3CCC2 (stereo unspecified)	183
Cc1noc(-c2ccc(C(F)(F)F)cc2)c1C(=O)Nc1ccccc1C(=O)O	205 to 206
COc1ccc(S(=O)(=O)C2(CCCCCCCCCC#Cc3ccc(Cl)cc3)SC(=O)NC2=O)cc1 (stereo unspecified)	114 to 121
CCOn1nnc2ccc(C(C)n3ccnc3)cc21 (stereo unspecified)	81.1
CC(C)(C)c1ccc(CCC2CO2)cc1NC(=O)CC1c2ccccc2Oc2ccccc21 (stereo unspecified)	156 to 157
CN(C)c1ccc2c(c1)C(=O)CC(c1cccc(OCc3ccccc3)c1)=N2	307 to 308
CCCc1c(C(OC)OC)cc([N+](=O)[O-])c(OC)c1OC	52.1 to 54
OCC1OC(n2cnc3c(NC4CCCc5ccccc54)ncnc32)C(O)C1O (stereo unspecified)	95.5 to 100
CCOC(=O)c1c(CCO)nc2cc(OC)c(OC)cc2c1-c1ccc(OC)c(OC)c1	150 to 151
COc1cc(OC)c2cc(-c3ccc(C#N)cc3)oc2c1	220 to 221
COC1(c2ccc(Sc3ccc4ccccc4c3)s2)CCOCC1	70
CCCc1ncc2cc(OC)nc(SC)n12	98 to 100
CC(C)c1ccccc1-n1c(=O)[nH]c2c(C(N)=O)nc(-c3ccc(-n4ccnc4)cc3)nc21	232
O=[N+]([O-])c1cc(F)c(N2CCCCC2)cc1Cl	70
Cn1cnc(S(=O)(=O)N2CCSCC2)c1	154 to 155
CN(C)C=C1CCc2ccn(Cc3ccccc3)c2C1=O	116 to 118
CC(C)(C)[Si](C)(C)Oc1ccccc1-c1cc(-c2ccc([N+](=O)[O-])cc2)c(C#N)c(N)n1	168 to 169
CCn1c(=Nc2ccccc2)sc2ncccc2c1=O	117 to 118
Cn1c(CNCC2CCOC2)cc2cc(NC(=O)c3ccc(OCC4CCOC4)cc3)ccc21 (stereo unspecified)	131 to 133
CC1(C)OC(=S)Nc2c(Br)cc(-c3cc(F)cc(C#N)c3)cc21	219 to 220

SMILES	melting point [°C]
COC(=O)[C@@H](Cc1ccccc1)Oc1c(Br)cc(-c2c3ccccc3c(Br)c3sc(C)c(C)c23)cc1C1CCCC1	167 to 168
Cc1nnc(NCCCC(C)N2CCNCC2)c2cc3ccccn3c12 (stereo unspecified)	110 to 111
c1ccc(Sc2c[nH]c3ccccc23)cc1	149 to 151
CC(C)OC(=O)N1CCC(c2nc3cc(-c4ccc(-n5cnnn5)c(F)c4)ccc3o2)CC1	187 to 191
CC(C)(C)c1ccc(C(O)CCCn2ccnc2)cc1 (stereo unspecified)	205 to 207
CC(O)=C(C(=O)OC(c1ccccc1)c1ccccc1)N1C(=O)C(NC(=O)C(NC(=O)OC(C)(C)C)c2ccccc2)C1SS(=O)(=O)c1ccc(C)cc1 (stereo unspecified)	182 to 184
C[C@H](NC(=O)C12CC3CC(CC(C3)C1)C2)C(=O)N1CCC[C@H]1C(=O)Nc1ccccc1	119 to 121
CC12CCC(C(=Cc3ccc(OCCO)cc3)C1=O)C2(C)C (stereo unspecified)	68
COc1ccccc1N1CCN(CCc2ccc3[nH]c(=O)oc3c2)CC1	182 to 184
Cc1ccc2c(c1)CC(N1CCN(CCN3CCOC3=O)CC1)c1cc(C)ccc1O2 (stereo unspecified)	145 to 147
FC(F)(F)c1cccc(-c2[nH]c(C3CCNCC3)cc2-c2ccncc2)c1	106 to 112
CCOCc1nc2c(N)nc3ccccc3c2n1CC1(C(N)=O)CCCCC1	221 to 223
COc1ccc(CSc2nc3cnccc3[nH]2)cc1C	158 to 159
Cc1c(-c2ccnc(Cl)n2)cccc1[N+](=O)[O-]	138 to 139
CN1Cc2c(C(=O)NN)ncn2-c2ccccc2C1=O	312 to 313
CN1CCN(C(=O)OC2c3ccccc3C(=O)N2c2ccc3ccc(C#N)nc3n2)CC1 (stereo unspecified)	266 to 268
FC(F)(F)c1ccc(OC2CCCCO2)c(Sc2ccccc2)c1 (stereo unspecified)	72 to 73
Cc1cc(Oc2ncc(C(F)(F)F)cc2Cl)ccc1N=C=O	154 to 161
CCCCC(=NO)C(=O)OCC	43.2 to 46.8
CCn1c(=O)ccc2cnc(Nc3ccc(N(C)C)cc3)nc21	189 to 191

SMILES	melting point [°C]
OC1(COc2ccccc2Cc2ccccc2)CN2CCC1CC2 (stereo unspecified)	71 to 73
Clc1ccc(Cc2cccc(-c3ncc4c(n3)CCCC4)n2)cn1	115 to 120
OC(C1=NCCN1)(c1ccccc1)c1cccc(Cl)n1 (stereo unspecified)	154 to 156
CC(=O)OC1CSC(Oc2cnccc2-c2ccncc2)C(OC(C)=O)C1OC(C)=O (stereo unspecified)	185
COC(=O)c1ccccc1-n1c(CCl)nc2c(OC)cccc2c1=O	208 to 210
CCOC(=O)CN1CCC2(CC1)CC(c1ccc(C#N)cc1)=NO2	116 to 118
COC(=S)c1nc(C)c(N)nc1N	158 to 160
O=c1[nH]c(=Cc2ccc(OCc3ccncc3)cn2)c(=O)[nH]c1=Cc1ccccc1	254 to 255
CCOCCc1cc(C)c(OCC=NO)cc1C	66 to 70
O=C1N(C2CCCCC2)CC(CCl)C1(c1ccccc1)c1ccccc1 (stereo unspecified)	124 to 126
COC(=O)C1(C(=O)OC)CCC1(C(=O)OC)C(=O)OC	80.5 to 81
C[C@@H](n1cnc2cc(-c3ccc(F)cc3)sc2c1=O)[C@](O)(Cn1cncn1)c1ccccc1F	213 to 225
CCn1c(=O)c2ccccc2n2cnc(-c3nc(COC)no3)c12	176
CCn1cc(C2(c3cccc(-c4cccnc4F)c3)N=C(N)N3CCCN=C32)cn1 (stereo unspecified)	91 to 115
COc1c(N2CC3CCC(N)C3C2)c(F)cc2c(=O)n(N)c(=O)n(C3CC3)c12 (stereo unspecified)	250 to 252
CC(=Cc1cn(-c2cccnc2)c2ccccc12)C(=O)O	213 to 215
CN1CCC(N(Cc2cccn2C)S(=O)(=O)c2ccc(Nc3nccc(Nc4ccc(F)cc4)n3)cc2)CC1	129
COc1ccc(O[C@@H]2COc3ccc(OCc4ccccn4)cc3[C@@H]2O)cc1 (relative stereo)	117 to 118
COC1(c2nc3ccccc3s2)C=CC(=O)C=C1	123
CCCCCCCCCCCCCCCCNc1c(Cl)cc(C(=O)O)cc1Cl	92 to 94
